Paper PMC6838110 (Nature Communications, 2019)

Key:
[1] = test system: A549 xenografts; experiment: Pharmacodynamic biomarkers by immunohistochemistry after IR; assay type: in vivo, mice; settings: single dose AZD7648 100 mg kg−1, 1 h before IR 6 Gy
[2] = test system: UWB1.289 and DLD1 BRCA2 KO cells; experiment: Live/Dead assay, AZD7648 monotherapy, BRCA1/BRCA2 isogenic pairs; assay type: cell-based; settings: 7 days treatment
Description: (§1) by Live/Dead assay in A) UWB1.289 and UWB1.289 complemented with wild-type BRCA1 (UWB1.289 + BRCA1), DLD1 and DLD1 with the BRCA2 gene knocked out (DLD1 BRCA2 KO), and B) FaDu and A549 cells with the ATM gene knocked out (ATM KO) compared with their WT counterpart. Graphs represent percentage viable cells ± SD following 7 days’ treatment relative to DMSO vehicle-treated controls from one representative experiment of at least three independent experiments. Tables describe […]
(§2) and A549 ATM KO cells compared with their WT counterparts following 7 days’ treatment.
(§3) Mean pGI50 (–log [GI50]) ± SEM, geometric mean GI50, number of experimental repeats (n) and 95% confidence interval are described. C) Colony formation assay was performed on FaDu and A549 ATM KO and WT cells treated with increasing concentrations of olaparib. Graphs represent percentage surviving fraction of colonies ± SD following 10– 14 days’ treatment relative to DMSO vehicle-treated control from one representative experiment of three independent experiments. […] Mean pIC50
(§4) ± SEM, geometric mean IC50, number of experimental repeats (n) and 95% confidence […]
(§5) 8–14 days or with increasing concentrations of olaparib. Cell colonies were washed with […]
(§6) Mean surviving colonies were calculated from three technical replicates. […]
(§7) before survival fraction was calculated. […]
(§8) and quantified using the Acumen ® Cellista (TTP Labtech). […]

[3] = test system: FaDu ATM KO cells; experiment: Cell proliferation (GI50), Live/Dead assay; assay type: cell-based; settings: Homo sapiens, read-out: GI50 (near 50% of maximal inhibition of cell proliferation)
Description: as §1, §2, §3, §4, §5, §6, §7, §8

[4] = test system: NCI-H1299 xenografts; experiment: Xenograft efficacy study with fractionated IR; assay type: in vivo, mice
Description: (§9) Immunocompromised SCID (C.B-17/IcrHan®Hsd-Prkdc^scid) or Hsd:Athymic Nude-Foxn1^nu female mice (Envigo) were used for tumour implantation. […] When dosed twice daily, the time between the morning and evening doses was 8 h. Targeted irradiation of 2 Gy was delivered over 2 min daily over the first 5 days of treatment. Liposomal doxorubicin (Doxoves) was diluted in physiological saline and intravenously dosed at 2.5 or 5 mg kg^−1 once per week. Olaparib was formulated in 10% DMSO/30% Kleptose and orally dosed at 100 mg kg^−1 once daily. […] Statistical significance was evaluated using a one-tailed t-test. All in vivo studies complied with all relevant ethical regulations for animal testing and research, followed AstraZeneca’s global bioethics policy and received ethical approval from the AstraZeneca ethical committee. HBCx-17 PDX study was carried out at XenTech, France in accordance with French regulatory legislation concerning the protection of laboratory animals. CTG-703, CTG-0828 and CTG-0149 PDX studies were carried out at Champions Oncology, Inc., USA in accordance to the guidelines of the Institutional Animal Care and Use Committee (IACUC) of Champions Oncology and the USA regulatory legislation. CDX and OV2022 PDX studies were conducted in the UK in accordance with UK Home Office legislation, the Animal Scientific Procedures Act 1986 and the Home Office project licences 70/8839, 70/8894 and P0EC1FFDF. […]
(§10) Tumours were measured (length x width) by bilateral Vernier calliper measurements and tumour volume calculated using Mousetrap software. Mice were randomized into […]
(§11) treatment groups when mean tumour volume reached ~0.2 cm 3. AZD7648 was formulated in 0.5% hydroxypropyl methylcellulose (HPMC)/0.1% Tween80 (HPMC/T) and orally dosed (4–100 mg/kg). When dosed twice daily (bid), the time between the morning and evening doses was 8 hours. Targeted irradiation of 2 Gy was delivered over 2 minutes daily over the first 5 days of treatment. Liposomal doxorubicin (Doxoves) was diluted in physiological saline and intravenously dosed at 2.5 or 5 mg/kg once per week. Olaparib was formulated in 10% DMSO/30% Kleptose and orally dosed at 100 mg/kg once daily.
(§12) HPMC/T. Tumour growth inhibition from start of treatment was assessed by co mparison of the mean change in tumour volume for the control and treated groups, using the Mousetrap application and represented as tumour growth inhibition (TGI). Statistical significance was evaluated using a one-tailed t-test. […]
(§13) was prepared using an appropriate dilution factor and compared against an 11-point standard calibration curve (1–10,000 nM) prepared in DMSO and spiked into bl ank plasma. […] Supernatant (50 µL) was then diluted in 300 µL water and analysed with ultra-performance liquid chromatography–tandem mass […]

[5] = test system: A549 xenografts; experiment: Xenograft efficacy study with fractionated IR; assay type: in vivo, mice
Description: as §9, §10, §11, §12, §13

**Q.** Which “IR-induced increases in pDNA-PKcs Ser2056 and γH2AX” value [1] does the source give for Cc1cc2ncnn2cc1Nc1ncc2c(n1)n(C1CCOCC1)c(=O)n2C [AZD7648] here?
**A.** abolished

**Q.** What about the “effect of loss of BRCA1 or BRCA2 on sensitivity to monotherapy” value [2] of the same compound?
**A.** did not sensitize

**Q.** What about the GI50 [3] of the same compound?
**A.** ~600 nM

**Q.** What about the tumour regression ([4]; AZD7648 50 mg kg−1 qd × 21 days + IR 2 Gy qd × 5 days) of the same compound?
**A.** 55%

**Q.** And the tumour regression ([4]; AZD7648 100 mg kg−1 qd × 21 days + IR 2 Gy qd × 5 days)?
**A.** 85%

**Q.** And the “tumour growth inhibition (TGI)” value ([5]; AZD7648 100 mg kg−1 qd oral + IR 2 Gy for five consecutive days)?
**A.** 90%

**Q.** And the “tumour response to single-agent treatment” value ([5]; AZD7648 100 mg kg−1 qd oral, single agent)?
**A.** insensitive
